Measurements taken from the PolyMetriX glass transition set.
± gives the standard deviation of the reports.

Molecule *c1cccc(S(=O)(=O)c2cccc(N3C(=O)c4ccc(Oc5ccc(S(=O)(=O)c6ccc(Oc7ccc8c(c7)C(=O)N(*)C8=O)cc6)cc5)cc4C3=O)c2)c1 (repeat unit) has a glass transition temperature of 205.00 °C.
With *CCCCCCCCCCCNC(=O)CCCCCCCCC(=O)N* (repeat unit) the glass transition temperature was 40.00 °C.
Molecule *CCCCCCNC(=O)CCP(=O)(CCC(=O)N*)c1ccccc1 (repeat unit) has a glass transition temperature of 29.00 °C.
*c1ccc(Oc2ccc(C(C)(C)c3ccc(Oc4ccc(-c5ncc(*)o5)cc4C(F)(F)F)cc3)cc2)c(C(F)(F)F)c1 (repeat unit) gave a glass transition temperature of 185.00 °C.
*Cc1ccccc1C[n+]1ccc(-c2cc[n+](*)cc2)cc1 (repeat unit) showed a glass transition temperature of 70.50 °C.
*c1ccc(Oc2ccc(C(c3ccc(Oc4ccc(-c5nnc(*)c6c(-c7ccc(F)cc7)c(-c7ccc(F)cc7)c(-c7ccc(F)cc7)c(-c7ccc(F)cc7)c56)cc4)cc3)(C(F)(F)F)C(F)(F)F)cc2)cc1 (repeat unit) gave a glass transition temperature of 288.00 °C.
With *O[Si](*)(C)CCCCOc1ccc(-c2ccc(C#N)cc2)cc1 (repeat unit) the glass transition temperature was 22.50 °C.
In the case of *CC(*)(C)C(=O)OCCCCCCOc1ccc(C(=O)Oc2ccc(C(=O)/C=C/c3c(C)c4ccccc4n3CCCC)cc2)cc1 (repeat unit), the glass transition temperature is reported as 85.00 °C.
Molecule *Oc1ccc(C2(c3ccc(OC(*)=O)c(Cl)c3)CCCCC2)cc1Cl (repeat unit) has a glass transition temperature of 179.00 °C.
*OC(C)COC(=O)c1ccccc1C(*)=O (repeat unit) showed a glass transition temperature of 95.00 °C.
Molecule *CC(C)(C)C1C(=O)N(C)C(=O)C1* (repeat unit) has a glass transition temperature of 156.50 °C.
*Nc1ccc(NC(=O)c2ccc(NC(=O)CCCCCCC(=O)Nc3ccc(C(*)=O)cc3)cc2)cc1C(=O)OCCCCCCCCCCCCCCCCCC (repeat unit) showed a glass transition temperature of 305.00 °C.
In the case of *C(=O)Nc1cc(NC(=O)c2ccc3[nH]c(-c4cc(-c5nc6cc(*)ccc6[nH]5)cc(N5C(=O)c6ccccc6C5=O)c4)nc3c2)cc(-c2nc3ccccc3[nH]2)c1 (repeat unit), the glass transition temperature is reported as 334.00 °C.
Work on *c1ccc(Sc2cc3c(cc2Sc2ccc(N4C(=O)c5ccc(Oc6ccc7c(c6)C(=O)N(*)C7=O)cc5C4=O)cc2)C(=O)N(CCc2ccccc2)C3=O)cc1 (repeat unit) yielded a glass transition temperature of 218.00 °C.
Work on *c1ccc(Oc2ccc(C(C)(C)c3ccc(Oc4ccc(-c5cccc(*)n5)cc4C(F)(F)F)cc3)cc2)c(C(F)(F)F)c1 (repeat unit) yielded a glass transition temperature of 125.00 °C.
Work on *O[Si](C)(C)O[Si](C)(C)O[Si](C)(C)O[Si](C)(C)OC(C)CCCCC(*)C (repeat unit) yielded a glass transition temperature of -98.00 °C.
Work on *NNC(=O)/C=C/C(=O)Nc1cccc(/C=C2\CC/C(=C\c3cccc(NC(=O)/C=C/C(*)=O)c3)C2=O)c1 (repeat unit) yielded a glass transition temperature of 104.60 °C.
Molecule *C(=O)NCC(C)(C)CNC(=O)c1ncn(C)c1* (repeat unit) has a glass transition temperature of 152.00 °C.
*c1ccc(NC(=O)c2ccc(OCCOCCOCCOc3ccc(C(=O)Nc4ccc5[nH]c(*)nc5c4)cc3)cc2)cc1 (repeat unit) gave a glass transition temperature of 155.00 °C.
*Nc1ccccc1-c1ccc(NC(=O)c2cccc(C(*)=O)c2)cc1 (repeat unit) gave a glass transition temperature of 248.00 °C.
Molecule *C(=O)c1ccc2c(c1)C(=O)N(c1ccc(Cc3ccc(Cc4cccc(N5C(=O)c6ccc(*)cc6C5=O)c4)cc3)cc1)C2=O (repeat unit) has a glass transition temperature of 317.00 °C.
Work on *c1cccc(P(=O)(c2ccc(C(F)(F)F)cc2)c2cccc(-n3c(=O)c4c(-c5ccccc5)c5c(=O)n(*)c(=O)c5c(-c5ccccc5)c4c3=O)c2)c1 (repeat unit) yielded a glass transition temperature of 337.00 °C.
In the case of *CC(*)(C)C(=O)OCC#CO[Si](C)(C)C (repeat unit), the glass transition temperature is reported as 57.00 °C.
In the case of *c1cccc(P(C)(=O)c2cccc(N3C(=O)c4ccc(NC(=O)OCCOc5ccc(C(C)(C)c6ccc(OCCOC(=O)Nc7ccc8c(c7)C(=O)N(*)C8=O)cc6)cc5)cc4C3=O)c2)c1 (repeat unit), the glass transition temperature is reported as 211.00 °C.
Molecule *C(=O)Oc1ccc(C(C)(C)c2ccc(OC(=O)c3ccc4c(c3)C(=O)N(c3cccc(N5C(=O)c6ccc(*)cc6C5=O)c3)C4=O)cc2)cc1 (repeat unit) has a glass transition temperature of 225.00 °C.
In the case of *Oc1cccc(NC(=O)CCCCCCCCCCC(=O)Nc2ccc(*)cc2)c1 (repeat unit), the glass transition temperature is reported as 110.00 °C.
Work on *Oc1ccc(S(=O)(=O)c2ccc(Oc3ccc(C(=O)c4cc(I)cc(C(=O)c5ccc(*)cc5)c4)cc3)cc2)cc1 (repeat unit) yielded a glass transition temperature of 203.00 °C.
Work on *Oc1ccc(/C=C/C(=O)c2ccc(Oc3ccc(C(C)(c4ccccc4)c4ccc(*)cc4)cc3)cc2)cc1 (repeat unit) yielded a glass transition temperature of 167.00 °C.
*CCCCCCNC(=O)CCCCCCCCCCCCCCC(=O)N* (repeat unit) gave a glass transition temperature of 40.00 °C.
Work on *c1ccc(Oc2ccc(C(=O)c3ccc(Oc4ccc(-c5c6c(c(*)c7ccccc57)C(=O)N(CCCCCCCCCCCC)C6=O)cc4)cc3)cc2)cc1 (repeat unit) yielded a glass transition temperature of 147.00 °C.
Work on *c1ccc(Cc2ccc(N3C(=O)c4ccc([Si](C)(C)c5ccc([Si](C)(C)c6ccc7c(c6)C(=O)N(*)C7=O)cc5)cc4C3=O)cc2)cc1 (repeat unit) yielded a glass transition temperature of 295.00 °C.
*CCCCCCCCN1C(=O)c2ccc(Oc3ccc4c(c3)C(=O)N(*)C4=O)cc2C1=O (repeat unit) showed a glass transition temperature of 145.00 °C.
With *N=P(*)(C)C (repeat unit) the glass transition temperature was -42.00 °C.
Molecule *Oc1cccc(NC(=O)CCCCCCCC(=O)Nc2ccc(*)cc2)c1 (repeat unit) has a glass transition temperature of 120.00 °C.
Molecule *CCCS(=O)(=O)c1ccc(/N=N/c2ccc(N(CCCC)CC(=O)O*)cc2)cc1 (repeat unit) has a glass transition temperature of 92.40 °C.
Work on *CC(*)(C)C(=O)OCCCCCCOc1ccc(OC(=O)c2ccc(OC)cc2)cc1 (repeat unit) yielded a glass transition temperature of 38.00 °C.
In the case of *c1ccc2c(c1)C(=O)N(c1ccc(-c3ccc(N4C(=O)c5ccc(C(*)(C(F)(F)F)C(F)(F)F)cc5C4=O)c(OCCOc4ccc5c(C)cc(=O)oc5c4)c3)cc1OCCOc1ccc3c(C)cc(=O)oc3c1)C2=O (repeat unit), the glass transition temperature is reported as 132.00 °C.
In the case of *CC(OCCCC)C1C(=O)OC(=O)C1* (repeat unit), the glass transition temperature is reported as 118.00 °C.
*CCCCCCCCCC(c1ccc(O)cc1)C(*)c1ccc(O)cc1C (repeat unit) showed a glass transition temperature of -1.00 °C.
For *CCCCCCCCCCNC(=O)CCCCC(=O)N* (repeat unit), the glass transition temperature was 45.00 °C.
Work on *C(C)C(*)C(=O)OCCCC (repeat unit) yielded a glass transition temperature of 90.00 °C.
With *CC(*)c1ccc(C(C)(O)CC)cc1 (repeat unit) the glass transition temperature was 190.00 °C.
Work on *CC(*)(CC(=O)OC(C)C)C(=O)OC(C)C (repeat unit) yielded a glass transition temperature of 100.00 °C.
With *Oc1ccc(/C=C/c2cc(OCCCCCCCC)c(/C=C/c3ccc(Oc4cc5c6c(ccc7c8c(*)cc9c%10c(ccc(c4c67)c%108)C(=O)N(CCCCCCCC)C9=O)C(=O)N(CCCCCCCC)C5=O)cc3)cc2OCCCCCCCC)cc1 (repeat unit) the glass transition temperature was 103.00 °C.
*c1ccc(-c2ccc(-c3ccc(-c4cc(-c5ccccc5)c5cc(Oc6ccc7nc(*)cc(-c8ccccc8)c7c6)ccc5n4)cc3)cc2)cc1 (repeat unit) gave a glass transition temperature of 300.00 °C.
*CCc1ccc(*)c(Br)c1 (repeat unit) showed a glass transition temperature of 80.00 °C.
For *Oc1ccc(OC(=O)c2cc(OCCCCCCCCCCOCC3CCCN3c3ccc([N+](=O)[O-])cc3)c(C(*)=O)cc2OCCCCCCCCCCOCC2CCCN2c2ccc([N+](=O)[O-])cc2)cc1 (repeat unit), the glass transition temperature was 30.00 °C.
With *CCCOCCCCOCCCN1C(=O)c2ccc(C(=O)Oc3ccc(C(C)(C)c4ccc(OC(=O)c5ccc6c(c5)C(=O)N(*)C6=O)cc4)cc3)cc2C1=O (repeat unit) the glass transition temperature was 60.00 °C.
Molecule *Oc1ccc(Cc2ccc(OC(*)=O)c(C)c2)cc1C (repeat unit) has a glass transition temperature of 51.00 °C.
Work on *c1ccc(-c2nc3cc4nc(-c5ccccc5)c(*)nc4cc3nc2-c2ccccc2)cc1 (repeat unit) yielded a glass transition temperature of 395.00 °C.
In the case of *CC(*)(C)C(=O)OCCCN(C)c1ccc(N(C)C)cc1 (repeat unit), the glass transition temperature is reported as 12.50 °C.
For *CC(*)(C)C(=O)OC1CCC(C)CC1 (repeat unit), the glass transition temperature was 109.00 °C.
Work on *C(=O)Nc1ccc(S(=O)(=O)c2ccc(NC(=O)c3ccc4c(c3)C(=O)N(c3cccc(P(=O)(c5ccccc5)c5cccc(N6C(=O)c7ccc(*)cc7C6=O)c5)c3)C4=O)cc2)cc1 (repeat unit) yielded a glass transition temperature of 241.00 °C.
Molecule *C(=O)Nc1ccc(C(c2ccc(NC(=O)c3ccc4c(c3)C(=O)N(c3ccc(Oc5ccc6ccc(Oc7ccc(N8C(=O)c9ccc(*)cc9C8=O)cc7)cc6c5)cc3)C4=O)cc2)(C(F)(F)F)C(F)(F)F)cc1 (repeat unit) has a glass transition temperature of 292.00 °C.
For *c1ccc(-c2cc(C(C)(C)C)c(Oc3ccc(-n4c(=O)c5cc6c(=O)n(*)c(=O)c6cc5c4=O)cc3)c(C(C)(C)C)c2)cc1 (repeat unit), the glass transition temperature was 398.50 °C.
In the case of *Oc1ccc(C(=O)c2cccc(C(=O)c3ccc(Oc4cccc(Cc5cccc(*)c5)c4)cc3)c2)cc1 (repeat unit), the glass transition temperature is reported as 114.00 °C.
Work on *c1ccc(Cc2ccc(N3C(=O)c4cccc5c(N6CCC(CCCC7CCN(c8ccc9c%10c(cccc8%10)C(=O)N(*)C9=O)CC7)CC6)ccc(c45)C3=O)c(C(C)(C)C)c2)cc1C(C)(C)C (repeat unit) yielded a glass transition temperature of 202.70 °C.
Work on *c1ccc2c3ccc(-c4ccc(-c5ccc(-c6ccc(*)s6)c6nsnc56)s4)cc3n(C(CCCCCCCC)CCCCCCCC)c2c1 (repeat unit) yielded a glass transition temperature of 121.00 ± 7.1 °C.
Molecule *CCN(CCOC(=O)Nc1ccc(Cc2ccc(NC(=O)O*)cc2)cc1)c1ccccc1 (repeat unit) has a glass transition temperature of 31.90 °C.
*Oc1ccc(NC(=O)c2ccc(Oc3ccc(C(=O)Nc4ccc(*)cc4)cc3)cc2)cc1 (repeat unit) gave a glass transition temperature of 274.00 °C.
For *C(*)C(=O)OC (repeat unit), the glass transition temperature was 85.8 °C.
For *CCCCOC(=O)/C=C/C(=O)O* (repeat unit), the glass transition temperature was 93.00 °C.
Work on *CC(*)(C)C(=O)OCCCCOc1ccc(OC(=O)c2ccc(-c3ccc(OC)cc3)cc2)cc1 (repeat unit) yielded a glass transition temperature of 77.00 °C.
*Oc1cccc(Oc2ccc(C(=O)c3ccc(NC(=O)c4cccc(C(=O)Nc5ccc(C(=O)c6ccc(*)cc6)cc5)c4)cc3)cc2)c1 (repeat unit) gave a glass transition temperature of 214.00 °C.
